Experimental data from patent EP2998294A1, “Naphthyl sulfonamide phenyl derivatives as KEAP-1 modulators for the treatment of diabetes, obesity, dyslipidemia and related disorders” (SANOFI, priority 2014, dated 2016).

The compounds below were run against T1, human Keap1 kelch domain (amino acids Ala321-Thr609) (Homo sapiens, UniProt Q14145) (assay: Keap1-Nrf2 peptide binding assay (fluorescence polarisation)). Details: binding of Keap1 kelch domain (20 nM) to fluorescently labeled Nrf2 peptide (50 nM).
T1 construct: human Keap1 kelch domain (amino acids Ala321-Thr609)
T1 sequence (Q14145 321-609): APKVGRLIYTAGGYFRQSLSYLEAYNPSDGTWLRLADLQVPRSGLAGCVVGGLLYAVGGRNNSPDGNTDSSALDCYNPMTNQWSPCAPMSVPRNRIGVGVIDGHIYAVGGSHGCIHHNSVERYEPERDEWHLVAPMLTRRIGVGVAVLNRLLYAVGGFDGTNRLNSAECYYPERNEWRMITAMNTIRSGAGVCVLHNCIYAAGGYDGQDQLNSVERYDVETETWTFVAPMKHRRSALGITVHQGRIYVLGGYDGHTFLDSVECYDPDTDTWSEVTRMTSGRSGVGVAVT
Experimental: A fluorescence polarisation assay was used to measure binding of the human Keap1 kelch domain (amino acids Ala321-Thr609) to a fluorescently labeled peptide containing a Keap1 binding site of human Nrf2 (Alexa633-AFFAQLQLDEETGEFL; JPT Technologies, Berlin, Germany). Two microliters of test compound in reaction buffer (phosphate-buffered saline, 2 mM DL-dithiothreitol, 0.015 % (v/v) Brij-35) containing 6 % (v/v) DMSO were mixed with two microliters of the Keap1 kelch domain in reaction buffer in a black 384-well small volume microtiter plate and incubated at ambient temperature for 15 minutes. Thereafter, two microliters were added of the fluorescently labeled Nrf2 peptide in reaction buffer, and the mixture was incubated for a further 30 minutes at ambient temperature. Final concentrations of the Keap1 kelch domain and the fluorescently labeled Nrf2 peptide were 20 nM and 50 nM, respectively.
Fluorescence polarization (FP) was measured at excitation and emission wavelengths of 635 nm and 660 nm, respectively. Positive controls for binding (two microliters of reaction buffer containing 6 % (v/v) DMSO instead of test compound in the same buffer) and negative controls (as positive controls, but without Keap1 kelch domain) were included on each microtiter plate. Data were expressed as percent-inhibition values: percentinhibition = 100⋅(1-(|FPcompound-FPnegative controle|)/(|FPpositive controle-FPnegative controle|)) [formula]
IC50 values were determined by testing different compound concentrations and fitting the resulting percent-inhibition values to the following equation using XLFit4: percentinhibition = A + (B-A)/(1 + (((IC50)/([Compound])))^D) [formula]
Parameter A was set to zero, pre-fit values for parameters B and D were set to 100 and 1, respectively.
For `O=C(O)c1ccc(F)c(-c2ccc(NS(=O)(=O)c3c(Cl)cc(C(F)(F)F)cc3Cl)c3ccccc23)c1` [Example 81, 3-[4-[[2,6-dichloro-4-(trifluoromethyl)phenyl]sulfonylamino]-1-naphthyl]-4-fluoro-benzoic acid], the IC50 was 0.7 µM. In the case of `Cc1ccc(Cl)cc1S(=O)(=O)Nc1ccc(-c2cc(C(=O)O)ccc2F)c2ccccc12` [Example 87, 3-[4-[(5-chloro-2-methylphenyl)sulfonylamino]-1-naphthyl]-4-fluorobenzoic acid], the IC50 is reported as 1 µM. For `O=C(O)c1ccc(F)c(-c2ccc(NS(=O)(=O)c3cc(F)cc(F)c3Cl)c3ccccc23)c1` [Example 92, 3-[4-[(2-chloro-3,5-difluorophenyl)sulfonylamino]-1-naphthyl]-4-fluorobenzoic acid], the IC50 was 5.3 µM.

Same assay, conditions: binding of Keap1 kelch domain (20 nM) to fluorescently labeled Nrf2 peptide (50 nM); read-out: IC50
`O=C(O)c1ccc(F)c(-c2ccc(NS(=O)(=O)c3ccc(Cl)c(C(F)(F)F)c3)c3ccccc23)c1` [Example 75, 3-[4-[[4-chloro-3-(trifluoromethyl)phenyl]sulfonylamino]-1-naphthyl]-4-fluoro-benzoic acid] was tested, and the IC50 was 4.4 µM. Work on `O=C(O)c1ccc(F)c(-c2ccc(NS(=O)(=O)c3cc(Cl)ccc3Cl)c3ccccc23)c1` [Example 76, 3-[4-[(2,5-dichlorophenyl)sulfonylamino]-1-naphthyl]-4-fluoro-benzoic acid] yielded an IC50 of 2.4 µM. For `Cc1c(S(=O)(=O)Nc2ccc(-c3cc(C(=O)O)ccc3F)c3ccccc23)cnn1-c1ccccc1` [Example 77, 4-fluoro-3-[4-[(5-methyl-1-phenyl-pyrazol-4-yl)sulfonylamino]-1-naphthyl]benzoic acid], the IC50 was 3.7 µM. Work on `Cn1cc(S(=O)(=O)Nc2ccc(-c3cc(C(=O)O)ccc3F)c3ccccc23)c(C(F)(F)F)n1` [Example 78, 4-fluoro-3-[4-[[1-methyl-3-(trifluoromethyl)pyrazol-4-yl]sulfonylamino]-1-naphthyl]benzoic acid] yielded an IC50 of 9.7 µM. `Cc1nn(C)c(C)c1S(=O)(=O)Nc1ccc(-c2cc(C(=O)O)ccc2F)c2ccccc12` [Example 79, 4-fluoro-3-[4-[(1,3,5-trimethylpyrazol-4-yl)sulfonylamino]-1-naphthyl]benzoic acid] gave an IC50 of 0.4 µM. Compound `Cc1nc(C)c(S(=O)(=O)Nc2ccc(-c3cc(C(=O)O)ccc3F)c3ccccc23)s1` [Example 80, 3-[4-[(2,4-dimethylthiazol-5-yl)sulfonylamino]-1-naphthyl]-4-fluorobenzoic acid] has an IC50 of 1.9 µM. Work on `O=C(O)c1ccc(F)c(-c2ccc(NS(=O)(=O)c3cc(F)c(F)cc3Cl)c3ccccc23)c1` [Example 82, 3-[4-[(2-chloro-4,5-difluorophenyl)sulfonylamino]-1-naphthyl]-4-fluorobenzoic acid] yielded an IC50 of 5.1 µM. `COc1ccc(S(=O)(=O)Nc2ccc(-c3cc(C(=O)O)ccc3F)c3ccccc23)c(OC)c1` [Example 83, 3-[4-[(2,4-dimethoxyphenyl)sulfonylamino]-1-naphthyl]-4-fluoro-benzoic acid] was tested, and the IC50 was 2.2 µM. `Cc1c(S(=O)(=O)Nc2ccc(-c3cc(C(=O)O)ccc3F)c3ccccc23)cnn1CC(C)C` [Example 84, 4-fluoro-3-[4-[(1-isobutyl-5-methyl-pyrazol-4-yl)sulfonylamino]-1-naphthyl]benzoic acid] gave an IC50 of 1.7 µM. Work on `O=C(O)c1ccc(F)c(-c2ccc(NS(=O)(=O)c3cc(Cl)sc3Cl)c3ccccc23)c1` [Example 85, 3-[4-[(2,5-dichloro-3-thienyl)sulfonylamino]-1-naphthyl]-4-fluoro-benzoic acid] yielded an IC50 of 0.9 µM. Work on `Cc1nn(-c2ccccc2)c(C)c1S(=O)(=O)Nc1ccc(-c2cc(C(=O)O)ccc2F)c2ccccc12` [Example 86, 3-[4-[(3,5-dimethyl-1-phenyl-pyrazol-4-yl)sulfonylamino]-1-naphthyl]-4-fluorobenzoic acid] yielded an IC50 of 1.5 µM. `Cc1cc(S(=O)(=O)Nc2ccc(-c3cc(C(=O)O)ccc3F)c3ccccc23)c(Cl)cc1Cl` [Example 88, 3-[4-[(2,4-dichloro-5-methylphenyl)sulfonylamino]-1-naphthyl]-4-fluorobenzoic acid] showed an IC50 of 1.3 µM. In the case of `COc1cc(C)ccc1S(=O)(=O)Nc1ccc(-c2cc(C(=O)O)ccc2F)c2ccccc12` [Example 89, 4-fluoro-3-[4-[(2-methoxy-4-methylphenyl)sulfonylamino]-1-naphthyl]benzoic acid], the IC50 is reported as 2.5 µM. `Cc1c(S(=O)(=O)Nc2ccc(-c3cc(C(=O)O)ccc3F)c3ccccc23)cnn1C1CCCC1` [Example 90, 3-[4-[(1-cyclopentyl-5-methyl-pyrazol-4-yl)sulfonylamino]-1-naphthyl]-4-fluorobenzoic acid] showed an IC50 of 1.2 µM. For `COc1ccc(F)c(S(=O)(=O)Nc2ccc(-c3cc(C(=O)O)ccc3F)c3ccccc23)c1` [Example 91, 4-fluoro-3-[4-[(2-fluoro-5-methoxyphenyl)sulfonylamino]-1-naphthyl]benzoic acid], the IC50 was 2.2 µM. For `Cc1c(S(=O)(=O)Nc2ccc(-c3cc(C(=O)O)ccc3F)c3ncccc23)sc2ccc(Cl)cc12` [Example 93, 3-[5-[(5-chloro-3-methyl-benzothiophen-2-yl)sulfonylamino]-8-quinolyl]-4-fluoro-benzoic acid], the IC50 was 6.5 µM. `Cc1c(S(=O)(=O)Nc2ccc(-c3cc(C(=O)O)ccc3F)c3ncccc23)sc2cccc(F)c12` [Example 94, 4-fluoro-3-[5-[(4-fluoro-3-methyl-benzothiophen-2-yl)sulfonylamino]-8-quinolyl]benzoic acid] showed an IC50 of 3 µM. For `CCCCCCCCn1nc(C)c(S(=O)(=O)Nc2ccc(-c3cc(C(=O)O)ccc3F)c3ncccc23)c1C` [Example 95, 3-[5-[(3,5-dimethyl-1-octyl-pyrazol-4-yl)sulfonylamino]-8-quinolyl]-4-fluorobenzoic acid], the IC50 was 2.2 µM. Compound `Cc1c(S(=O)(=O)Nc2ccc(-c3cc(C(=O)O)ccc3F)c3ncccc23)c2ccccc2n1C` [Example 96, 3-[5-[(1,2-dimethylindol-3-yl)sulfonylamino]-8-quinolyl]-4-fluoro-benzoic acid] has an IC50 of 0.9 µM. With `Cn1ccc2c(S(=O)(=O)Nc3ccc(-c4cc(C(=O)O)ccc4F)c4ncccc34)cccc21` [Example 97, 4-fluoro-3-[5-[(1-methylindol-4-yl)sulfonylamino]-8-quinolyl]benzoic acid] the IC50 was 5.5 µM.
